Measurements reported in ChEMBL document CHEMBL5034028, “Design, synthesis and biological evaluation of tyrosinase-targeting PROTACs” (Eur J Med Chem, 2021).
pIC50: −log10 of the molar value. ≈ marks a conversion by molar mass, not a printed value. Calls of active or inactive are those of the source. No cut-off for these calls is given here.

Columns and labels:
[1] = molecular target: T1, Protein cereblon/Tyrosinase (Homo sapiens) (UniProt P14679+Q96SW2); test: Protac activity at CRBN E3 ubiquitin ligase/tyrosinase in human A-375 cells assessed as induction of tyrosinase degradation at 100 uM measured after 24 hrs by immunoblotting analysis; type: cell-based
T1 sequence (Q96SW2 whole entry, looked up, one chain of several): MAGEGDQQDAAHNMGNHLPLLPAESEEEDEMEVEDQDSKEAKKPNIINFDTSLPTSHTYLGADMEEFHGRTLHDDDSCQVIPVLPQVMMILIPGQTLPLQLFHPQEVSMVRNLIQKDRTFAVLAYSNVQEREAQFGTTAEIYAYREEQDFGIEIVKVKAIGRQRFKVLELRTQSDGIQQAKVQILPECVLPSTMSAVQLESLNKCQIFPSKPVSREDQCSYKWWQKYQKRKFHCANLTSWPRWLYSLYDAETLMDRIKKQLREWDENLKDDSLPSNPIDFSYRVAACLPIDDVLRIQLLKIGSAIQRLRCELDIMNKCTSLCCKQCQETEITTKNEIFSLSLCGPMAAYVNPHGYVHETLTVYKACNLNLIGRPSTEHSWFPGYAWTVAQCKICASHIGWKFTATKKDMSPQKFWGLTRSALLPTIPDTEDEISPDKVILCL

Danio rerio [2] = organism: Danio rerio; test: Inhibition of melanin production in zebra fish assessed reduction in melanin level in eyes at 25 to 100 uM measured 48 hrs post fertilization; type: functional, organism-based; details: dose 25-100 µM
[3] = molecular target: D(1A) dopamine receptor (Homo sapiens) (UniProt P21728); test: Induction of degradation in dopamine receptor D1 in human A-375 cells at 100 uM measured after 24 hrs by immunoblotting analysis; type: cell-based
Sequence of D(1A) dopamine receptor (Homo sapiens) (P21728 whole entry): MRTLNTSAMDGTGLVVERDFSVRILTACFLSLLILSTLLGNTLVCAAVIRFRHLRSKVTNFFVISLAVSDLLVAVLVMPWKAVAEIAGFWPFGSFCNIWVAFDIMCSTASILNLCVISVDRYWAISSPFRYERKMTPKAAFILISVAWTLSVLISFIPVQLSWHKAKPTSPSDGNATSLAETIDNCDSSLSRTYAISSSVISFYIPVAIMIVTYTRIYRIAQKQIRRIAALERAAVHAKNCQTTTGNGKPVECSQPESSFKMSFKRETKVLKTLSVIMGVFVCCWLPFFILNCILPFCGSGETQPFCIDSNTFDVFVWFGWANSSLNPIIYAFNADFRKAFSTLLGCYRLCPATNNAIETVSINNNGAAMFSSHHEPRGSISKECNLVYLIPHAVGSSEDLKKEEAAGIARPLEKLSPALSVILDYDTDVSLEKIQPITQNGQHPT

[4] = molecular target: Beta-1 adrenergic receptor (Homo sapiens) (UniProt P08588); test: Induction of degradation in adrenergic receptor beta1 in human A-375 cells at 100 uM measured after 24 hrs by immunoblotting analysis; type: cell-based
Sequence of Beta-1 adrenergic receptor (Homo sapiens) (P08588 whole entry, looked up): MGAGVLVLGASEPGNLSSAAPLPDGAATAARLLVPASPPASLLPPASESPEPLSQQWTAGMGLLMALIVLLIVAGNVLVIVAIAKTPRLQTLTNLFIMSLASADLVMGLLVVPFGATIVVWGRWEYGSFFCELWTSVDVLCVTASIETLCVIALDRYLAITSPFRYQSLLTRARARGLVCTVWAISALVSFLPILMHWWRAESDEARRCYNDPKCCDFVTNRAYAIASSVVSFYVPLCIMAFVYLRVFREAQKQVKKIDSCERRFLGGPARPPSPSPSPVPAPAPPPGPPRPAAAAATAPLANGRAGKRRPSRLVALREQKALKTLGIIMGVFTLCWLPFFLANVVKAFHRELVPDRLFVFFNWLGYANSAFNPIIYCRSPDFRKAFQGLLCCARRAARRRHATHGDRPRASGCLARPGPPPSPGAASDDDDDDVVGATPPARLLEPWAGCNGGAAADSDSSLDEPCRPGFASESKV

[5] = molecular target: T1, Protein cereblon/Tyrosinase (Homo sapiens); test: Protac activity at CRBN E3 ubiquitin ligase/tyrosinase in human A-375 cells assessed as induction of tyrosinase degradation at 50 uM measured after 24 hrs by immunoblotting analysis; type: cell-based
Danio rerio [6] = organism: Danio rerio; test: Inhibition of melanin production in zebra fish assessed reduction in melanin level in eyes at 25 to 100 uM measured 48 hrs post fertilization relative to 100 uM kojic acid; type: functional; details: dose 25-100 µM
[7] = molecular target: T1, Protein cereblon/Tyrosinase (Homo sapiens); test: Protac activity at CRBN E3 ubiquitin ligase/tyrosinase in human A-375 cells assessed as induction of tyrosinase degradation by measuring maximum degradation at 100 uM measured after 24 hrs by immunoblotting analysis relative to control; type: cell-based
Danio rerio [8] = organism: Danio rerio; test: Inhibition of melanin production in zebra fish assessed reduction in melanin level in abdomen at 25 to 100 uM measured 48 hrs post fertilization; type: functional, organism-based; details: dose 25-100 µM
Danio rerio [9] = organism: Danio rerio; test: Inhibition of melanin production in zebra fish assessed reduction in melanin level in eyes at 25 to 100 uM measured 48 hrs post fertilization relative to 100 uM L-Dopa; type: functional; details: dose 25-100 µM
[10] = molecular target: T1, Protein cereblon/Tyrosinase (Homo sapiens); test: Protac activity at CRBN E3 ubiquitin ligase/tyrosinase in human A-375 cells assessed as induction of tyrosinase degradation measured after 24 hrs by immunoblotting analysis; type: cell-based
[11] = Cytotoxicity against HEK293 cells assessed as reduction in cell viability measured after 72 hrs by CCK8 assay; type: cell-based; details: human
[12] = molecular target: T1, Protein cereblon/Tyrosinase (Homo sapiens); test: Protac activity at CRBN E3 ubiquitin ligase/tyrosinase in human A-375 cells assessed as induction of tyrosinase degradation at 100 uM measured up to 48 hrs by immunoblotting analysis; type: cell-based; details: time hrs <=48, TDE = time-dependent effect
[13] = Cytotoxicity against human A-375 cells assessed as reduction in cell viability measured after 72 hrs by CCK8 assay; type: cell-based
[14] = Aqueous solubility of compound; type: physicochemical; details: aqueous (not further specified)
A-375 [15] = test: Inhibition of melanin production in human A-375 cells assessed depigmentation ability at 0 to 100 uM measured after 24 hrs by UV-visible absorption spectrophotometric method relative to 100 uM L-Dopa; type: functional; details: dose 0-100 µM
Danio rerio [16] = organism: Danio rerio; test: Inhibition of melanin production in zebra fish assessed reduction in melanin level in back at 25 to 100 uM measured 48 hrs post fertilization; type: functional, organism-based; details: dose 25-100 µM
[17] = molecular target: T1, Protein cereblon/Tyrosinase (Homo sapiens); test: Protac activity at CRBN E3 ubiquitin ligase/tyrosinase in human A375 cells assessed as induction of tyrosinase degradation at 50 uM measured after 24 hrs by immunoblotting analysis relative to control; type: cell-based; details: A-375
Tyrosinase = molecular target: T2, Tyrosinase (Homo sapiens, UniProt P14679); test: Inhibition of human tyrosinase
T2 sequence (P14679 whole entry): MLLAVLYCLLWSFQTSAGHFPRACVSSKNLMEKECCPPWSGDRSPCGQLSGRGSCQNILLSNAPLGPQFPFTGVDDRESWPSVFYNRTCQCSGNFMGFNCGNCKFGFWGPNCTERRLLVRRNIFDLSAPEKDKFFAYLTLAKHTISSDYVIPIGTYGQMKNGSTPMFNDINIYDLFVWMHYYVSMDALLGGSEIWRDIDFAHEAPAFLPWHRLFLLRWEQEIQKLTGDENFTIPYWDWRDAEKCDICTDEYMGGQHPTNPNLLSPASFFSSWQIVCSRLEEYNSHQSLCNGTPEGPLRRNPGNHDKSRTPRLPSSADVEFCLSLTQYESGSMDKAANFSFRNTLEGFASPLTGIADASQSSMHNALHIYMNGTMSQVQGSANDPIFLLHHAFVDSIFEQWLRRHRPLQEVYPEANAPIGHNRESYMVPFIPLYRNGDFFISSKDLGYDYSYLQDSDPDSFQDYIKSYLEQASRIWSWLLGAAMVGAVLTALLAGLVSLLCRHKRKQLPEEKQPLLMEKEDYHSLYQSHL

Danio rerio [18] = organism: Danio rerio; test: Inhibition of melanin production in zebra fish assessed reduction in melanin level in tail at 25 to 100 uM measured 48 hrs post fertilization; type: functional, organism-based; details: dose 25-100 µM
[19] = molecular target: Adrenergic receptor alpha-1 (Homo sapiens) (UniProt P35348+P25100+P35368); test: Induction of degradation in adrenergic receptor alpha1 in human A-375 cells at 100 uM measured after 24 hrs by immunoblotting analysis; type: cell-based
[20] = molecular target: T3, Tyrosinase (Homo sapiens) (UniProt P14679); test: Induction of human tyrosinase degradation in human A-375 cells assessed as downregulation of tyrosinase at 100 uM pretreated with proteasome inhibitor, MG132 for 30 mins followed by compound addition and measured after 24 hrs by immunoblotting analysis; type: cell-based
T3 sequence (whole entry): T2 sequence (P14679 whole entry)

[21] = Toxicity in zebrafish embryo assessed as effect on morphology at 25 to 100 uM measured 48 hrs post fertilization; type: tissue-based, Danio rerio; details: in vivo, dose 25-100 µM
HEK293 = test: Cytotoxicity against HEK293 cells assessed as reduction in cell viability at up to 400 uM measured after 72 hrs by CCK8 assay; type: cell-based; details: human, hek293, 72 h
A-375 [22] = test: Cytotoxicity against human A-375 cells assessed as reduction in cell viability at up to 400 uM measured after 72 hrs by CCK8 assay; type: cell-based; details: a-375, 72 h
[23] = n-Octanol/water partition coefficient, logD of the compound; type: physicochemical
[24] = Toxicity in zebrafish embryo assessed as effect on respiration at 25 to 100 uM measured 48 hrs post fertilization; design: species or system Danio rerio; details: in vivo, dose 25-100 µM
A-375 [25] = test: Inhibition of melanin production in human A-375 cells assessed reduction in melanin level measured after 24 hrs by UV-visible absorption spectrophotometric method; type: functional, cell-based
Danio rerio [26] = organism: Danio rerio; test: Inhibition of melanin production in zebra fish assessed depigmentation effect at 25 to 100 uM measured 96 hrs post fertilization relative to control; type: functional; design: scale not given: the % may be the effect or the level left; details: dose 25-100 µM
[27] = molecular target: T3, Tyrosinase (Homo sapiens); test: Induction of human tyrosinase degradation in human A-375 cells assessed as downregulation of tyrosinase at 100 uM pretreated with ubiquitin activating enzyme inhibitor […] for 30 mins followed by compound addition and measured after 24 hrs by immunoblotting analysis; type: cell-based
A-375 [28] = test: Inhibition of melanin production in human A-375 cells assessed depigmentation ability at 0 to 100 uM measured after 24 hrs by UV-visible absorption spectrophotometric method relative to 100 uM kojic acid; type: functional; details: dose 0-100 µM
Mushroom tyrosinase = Mushroom tyrosinase (Agaricus bisporus, UniProt O42713+Q00024+C7FF04+C7FF05); test: Binding affinity to mushroom tyrosinase assessed as dissociation constant
A-375 [29] = test: Inhibition of melanin production in human A-375 cells assessed reduction in melanin level at 100 uM measured after 24 hrs by UV-visible absorption spectrophotometric method; type: functional, cell-based
Danio rerio [30] = organism: Danio rerio; test: Inhibition of melanin production in zebra fish assessed depigmentation effect at 100 uM measured 96 hrs post fertilization; type: functional, organism-based

N[C@@H](Cc1ccccc1)C(=O)NCCCCCNc1cccc2c1C(=O)N(C1CCC(=O)NC1=O)C2=O (some centres not stated)
Activity [1]: inactive

N[C@@H](Cc1ccc(O)cc1)C(=O)NCCCCCNc1cccc2c1C(=O)N(C1CCC(=O)NC1=O)C2=O (some centres not stated)
Activity [1]: inactive

CN1C(=O)CCC(N2C(=O)c3cccc(NCCCCCNC(=O)[C@@H](N)Cc4ccc(O)c(O)c4)c3C2=O)C1=O (some centres not stated)
Activity [1]: inactive

N[C@@H](Cc1ccc(O)c(O)c1)C(=O)NCCCCCNc1cccc2c1C(=O)N(C1CCC(=O)NC1=O)C2=O (some centres not stated)
inhibition (Danio rerio [2]): Active | Activity [3]: inactive | Activity [4]: inactive | Activity [5]: Active | fold change (FC) (Danio rerio [6]): 3.3 | %max [7]: 61% | inhibition (Danio rerio [8]): Active | fold change (FC) (Danio rerio [9]): 5.1 | Activity [10]: Dose-Dependent Effect | CC50 at 72 h [11]: > 700 µM | Activity [12]: Tde | CC50 at 72 h [13]: > 700 µM | solubility [14]: 11400 µg/mL (≈ 21200 µM) | fold change (FC) (A-375 [15]): 1.7 | inhibition (Danio rerio [16]): Active | Activity [17]: 46% | pIC50 (Tyrosinase): 3.95 | inhibition (Danio rerio [18]): Active | Activity [19]: inactive | Activity [20]: inactive | Activity [21]: Non-Toxic | Activity (HEK293): Non-Toxic | Activity (A-375 [22]): Non-Toxic | logP [23]: -0.65 | Activity [24]: Non-Toxic | inhibition (A-375 [25]): Dose-Dependent Effect | Activity (Danio rerio [26]): 81% | Activity [27]: inactive | fold change (FC) (A-375 [28]): 1.4

N[C@@H](Cc1cccc(O)c1)C(=O)NCCCCCNc1cccc2c1C(=O)N(C1CCC(=O)NC1=O)C2=O (some centres not stated)
Activity [1]: inactive

N[C@@H](Cc1ccc(O)c(O)c1)C(=O)O [LEVODOPA]
inhibition (Danio rerio [2]): inactive | Activity [5]: inactive | inhibition (Danio rerio [8]): inactive | Kd (Mushroom tyrosinase): 19 µM | inhibition (Danio rerio [16]): inactive | inhibition (Danio rerio [18]): inactive | inhibition (A-375 [29]): Active

O=C1CCC(N2C(=O)c3cccc(NCCCCCC(=O)OCc4cc(=O)c(O)co4)c3C2=O)C(=O)N1 (configuration not stated)
Activity [5]: inactive

N[C@@H](Cc1ccc(O)c(O)c1)C(=O)NCCCCCCCNc1cccc2c1C(=O)N(C1CCC(=O)NC1=O)C2=O (some centres not stated)
Activity [17]: 37%

O=C(CCc1ccc(O)c(O)c1)NCCCCCNc1cccc2c1C(=O)N(C1CCC(=O)NC1=O)C2=O (configuration not stated)
Activity [1]: inactive

N[C@@H](Cc1ccc(O)c(O)c1)C(=O)NCCCCCCNc1cccc2c1C(=O)N(C1CCC(=O)NC1=O)C2=O (some centres not stated)
Activity [3]: inactive | Activity [4]: inactive | Activity [17]: > 25% | Activity [19]: inactive

N[C@@H](Cc1ccc(O)c(O)c1)C(=O)NCCCCNc1cccc2c1C(=O)N(C1CCC(=O)NC1=O)C2=O (some centres not stated)
Activity [17]: 19%

N[C@@H](Cc1ccc(O)c(O)c1)C(=O)NCCCCCCCCNc1cccc2c1C(=O)N(C1CCC(=O)NC1=O)C2=O (some centres not stated)
Activity [5]: Active | Activity [17]: 38%

O=C1CCC(N2C(=O)c3ccccc3C2=O)C(=O)N1 (configuration not stated)
Activity [5]: inactive

N[C@@H](Cc1ccc(O)c(O)c1)C(=O)NCCNc1cccc2c1C(=O)N(C1CCC(=O)NC1=O)C2=O (some centres not stated)
Activity [17]: 14%

O=C1CCC(N2C(=O)c3cccc(NCCCCCCCCC(=O)OCc4cc(=O)c(O)co4)c3C2=O)C(=O)N1 (configuration not stated)
Activity [5]: inactive

O=c1oc2c(O)c(O)cc3c(=O)oc4c(O)c(O)cc1c4c23 [ELLAGIC ACID]
solubility [14]: 9.7 µg/mL (≈ 32.1 µM)

N[C@@H](Cc1ccc(O)c(O)c1)C(=O)NCCOCCOCCNc1cccc2c1C(=O)N(C1CCC(=O)NC1=O)C2=O (some centres not stated)
Activity [17]: 7%

N[C@@H](Cc1ccc(O)c(O)c1)C(=O)NCCCCCCCCCCNc1cccc2c1C(=O)N(C1CCC(=O)NC1=O)C2=O (some centres not stated)
Activity [17]: 37%

N[C@@H](Cc1ccc(O)c(O)c1)C(=O)NCCCNc1cccc2c1C(=O)N(C1CCC(=O)NC1=O)C2=O (some centres not stated)
Activity [17]: 25%

O=C1CCC(N2C(=O)c3cccc(NCCCCCCCC(=O)OCc4cc(=O)c(O)co4)c3C2=O)C(=O)N1 (configuration not stated)
Activity [5]: inactive

O=C1CCC(N2C(=O)c3cccc(NCCCCCCCCCCC(=O)OCc4cc(=O)c(O)co4)c3C2=O)C(=O)N1 (configuration not stated)
Activity [5]: inactive

N[C@@H](Cc1ccc(O)c(O)c1)C(=O)NCCOCCNc1cccc2c1C(=O)N(C1CCC(=O)NC1=O)C2=O (some centres not stated)
Activity [17]: 7%

O=c1cc(CO)occ1O [KOJIC ACID]
inhibition (Danio rerio [2]): inactive | inhibition (Danio rerio [8]): inactive | solubility [14]: 55 µg/mL (≈ 387 µM) | inhibition (Danio rerio [16]): inactive | inhibition (Danio rerio [18]): inactive | inhibition (A-375 [29]): Active | Activity (Danio rerio [30]): Active
